Reference: patent US20210299103A1, “COMPOSITION FOR PREVENTING OR TREATING CANCER, COMPRISING SULFONAMIDE DERIVATIVE AS ACTIVE INGREDIENT” (EXOSTEMTECH CO., LTD., priority 2018, published 2021)
≈ marks a conversion by molar mass, not a printed value. Entries after “also recorded” stand apart in the source; their conditions may differ. Read-outs that look alike come from different tables or passages of the source.

Key:
[1] = test system: Escherichia coli (ATCC 25922); experiment: Minimum inhibitory concentration (MIC) assay on Mueller-Hinton agar, CLSI guidelines; type: cell-based; settings: for antibiotic susceptibility / antibiotic effect (in words): E. coli; for MIC: E.coli (ATCC 25922), Mueller-Hinton agar
Description: (§1) Staphylococcus aureus (ATCC 29213) and Escherichia coli (ATCC 25922) were used.

[2] = test system: Staphylococcus aureus (ATCC 29213); experiment: as above; type: cell-based; settings: for antibiotic susceptibility / antibiotic effect (in words): S. aureus; for MIC: S.aureus (ATCC 29213), Mueller-Hinton agar
Description: as §1

MDA-MB231 cells [3] = settings: 100, 200, 400 or 800 μM, cultured 24 hours, FIG. 3
Protocol: After seeding MDA-MB231 cells into a 24-well plate with 1×10^4 cells/well, the cells were stabilized by culturing for 24 hours.
After the culturing, the cells were incubated for 4 hours with an MTT tetrazolium reagent. Then, cell proliferation was investigated by measuring the absorbance of reduced MTT formazan (3-(4,5-dimethylthiazol-2-yl)-2,5-diphenyl-tetrazolium bromide) at 595 nm. Docetaxel (10 μM), which is currently used as an anticancer agent, was used as a control group.

[4] = test system: MDA-MB231 breast cancer cells; experiment: Exosome secretion inhibition, exosomes counted with Nano-sight LM10; type: cell-based; settings: 100 μM, serum-free medium, 24 hours, FIG. 4
Protocol: MDA-MB231 breast cancer cells were cultured on a 150-mm culture plate. 24 hours later, after removing the medium and washing with PBS, the cells were treated with each compound at 100 μM together with a serum-free medium and cultured for 24 hours. After discarding the medium and centrifuging at 300×g for 3 minutes, 2,500×g for 15 minutes […] 10,000×g for 30 minutes, the supernatant was transferred to a fresh tube.
After filtering through a 200-nm syringe filter, exosome pellets were obtained by centrifuging at 120,000×g for 90 minutes. After redispersing the exosome pellets using PBS, the number of exosomes secreted by the cells was counted using Nano-sight LM10 (Malvern).

MDA-MB231 cells [5] = experiment: Cancer cell migration assay, 8 μm insert, crystal violet staining; type: cell-based; settings: 100, 200, 400 or 800 μM, 5 hours, FIG. 5

Compound	antibiotic susceptibility / antibiotic effect (in words) [1]	MIC [1]	antibiotic susceptibility / antibiotic effect (in words) [2]	MIC [2]	cytotoxicity (MTT, absorbance at 595 nm) (MDA-MB231 cells [3])	inhibition of secretion of exosomes [4]	inhibition of migration of the cancer cells (MDA-MB231 cells [5])	MIC ([1]; Escherichia coli, ATCC25922, read-out: MIC)	MIC ([2]; Staphylococcus aureus, ATCC29213, read-out: MIC)
CC(=O)Nc1ccc(S(=O)(=O)N(C(C)=O)c2onc(C)c2C)cc1 [SFX-DAS, sulfisoxazole-N^1&N^4-dual acetyl]	no antibiotic susceptibility at all; also recorded: completely disappeared	>512 µg/mL	no antibiotic susceptibility at all; also recorded: completely disappeared	>512 µg/mL	exhibit cytotoxicity at 100 μM or higher	strongly inhibit the secretion of exosomes	inhibited in a concentration-dependent manner		
CC(=O)N(c1onc(C)c1C)S(=O)(=O)c1ccc(N)cc1 [SFX-N1AS, sulfisoxazole-N^1-acetyl]	decreased antibiotic susceptibility; also recorded: reduced significantly	128 µg/mL (≈ 414 µM)	decreased antibiotic susceptibility; also recorded: reduced significantly	512 µg/mL (≈ 1660 µM)		strongly inhibit the secretion of exosomes	inhibited in a concentration-dependent manner		
CC(=O)Nc1ccc(S(=O)(=O)Nc2onc(C)c2C)cc1 [SFX-N4AS, sulfisoxazole-N^4-acetyl]	no antibiotic susceptibility at all; also recorded: completely disappeared	>512 µg/mL	no antibiotic susceptibility at all; also recorded: completely disappeared	>512 µg/mL		strongly inhibit the secretion of exosomes	inhibited in a concentration-dependent manner		
Cc1noc(NS(=O)(=O)c2ccc(N)cc2)c1C [SFX-WT, sulfisoxazole, reference compound]	strong antibiotic susceptibility		strong antibiotic susceptibility				inhibited in a concentration-dependent manner	16 µg/mL (≈ 59.9 µM)	32 µg/mL (≈ 120 µM)
